Results as given in paper PMC4610143 (Journal of biomolecular screening, 2014).
pKi: −log10 of the molar value. Entries after “also recorded” stand apart in the source; their conditions may differ.

How the values were obtained:
[1] = biological target: PIP5K1C (Homo sapiens, UniProt O60331); assay: ATP competition studies using the mobility shift assay; format: biochemical; details: read-out: average Ki; two independent ATP competition studies
[2] = tested on: PIP5K1C and PIP4K2C; details: for PIP5K1C and PIP4K2C; cited from earlier work
[3] = tested on: DRG neurons; details: cited from earlier work
[4] = tested on: pain hypersensitivity; details: injected intrathecally, rodent models of chronic pain; listed as UNC3230; cited from earlier work

Chain of PIP5K1C (O60331 whole entry): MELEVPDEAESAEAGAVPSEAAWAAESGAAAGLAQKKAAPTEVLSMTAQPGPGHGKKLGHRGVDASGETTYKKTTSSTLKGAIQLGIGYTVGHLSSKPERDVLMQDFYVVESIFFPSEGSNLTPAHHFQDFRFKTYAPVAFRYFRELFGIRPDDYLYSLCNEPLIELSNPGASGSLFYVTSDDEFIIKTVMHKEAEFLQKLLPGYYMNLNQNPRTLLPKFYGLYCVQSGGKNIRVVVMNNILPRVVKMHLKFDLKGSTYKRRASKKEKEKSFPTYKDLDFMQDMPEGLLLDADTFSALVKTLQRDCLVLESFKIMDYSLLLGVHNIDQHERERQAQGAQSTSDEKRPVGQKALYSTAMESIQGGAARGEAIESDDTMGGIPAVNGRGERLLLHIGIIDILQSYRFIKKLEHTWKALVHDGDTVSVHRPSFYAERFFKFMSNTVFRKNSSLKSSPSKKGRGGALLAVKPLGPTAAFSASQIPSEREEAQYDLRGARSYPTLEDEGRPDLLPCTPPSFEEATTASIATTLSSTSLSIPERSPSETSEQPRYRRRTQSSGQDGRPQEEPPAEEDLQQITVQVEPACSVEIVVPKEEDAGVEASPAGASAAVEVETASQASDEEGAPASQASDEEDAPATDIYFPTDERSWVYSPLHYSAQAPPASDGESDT

What does the source list for NC(=O)c1nc(Nc2ccccc2)sc1NC(=O)C1CCCCC1 [Compound 1]?
pKi [1]: 7.64; selectivity [2]: highly selective; effect on PIP2 in DRG neurons [3]: reduced PIP2; effect on pain hypersensitivity / nociceptive sensitization [4]: reduce nociceptive sensitization; also recorded: attenuated pain hypersensitivity
